Data published in PubChem BioAssay (NCI).
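A five-concentration, 48-hour dose response in 96-well plates underlies each endpoint, interpolated linearly between surrounding concentrations. GI50 marks 50% less growth. Definition used: TGI = concentration required for complete inhibition of growth.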

Legend:
Test in all cases: DTP human tumour cell line panel, 48 h
TK-10 renal = system: TK-10 renal
SF-268 CNS = system: SF-268 CNS
SK-OV-3 ovarian = system: SK-OV-3 ovarian
NCI-H460 lung = system: NCI-H460 lung
KM12 colon = system: KM12 colon
SF-295 CNS = system: SF-295 CNS
IGROV1 ovarian = system: IGROV1 ovarian
UO-31 renal = system: UO-31 renal
MCF7 breast = system: MCF7 breast
BT-549 breast = system: BT-549 breast

## CCC[CH2][Sn]1([CH2]CCC)[O]C(=O)C(C(C)C)N=Cc2ccccc2[O]1 (stereo not drawn)
TK-10 renal
  GI50: 0.272 µM
  TGI: 0.73 µM
SF-268 CNS
  GI50: 0.182 µM
  TGI: 1.01 µM
SK-OV-3 ovarian
  GI50: 0.52 µM
  TGI: 1.63 µM
NCI-H460 lung
  GI50: 1.28 µM
  TGI: 2.57 µM
KM12 colon
  GI50: 0.648 µM
  TGI: 1.98 µM
SF-295 CNS
  GI50: 1.04 µM
  TGI: 2.29 µM
IGROV1 ovarian
  GI50: 2.21 µM
  TGI: > 100 µM
UO-31 renal
  GI50: 0.462 µM
  TGI: 1.8 µM

## CCOC(=O)c1cc(/C(=N\O)c2cc(OC)c(OC)c(OC)c2)n2cc(C)cc(C)c12
TK-10 renal
  GI50: 3.66 µM
  TGI: 51.3 µM
SF-268 CNS
  GI50: 3.9 µM
  TGI: > 100 µM
SK-OV-3 ovarian
  GI50: 1.89 µM
  TGI: 4.8 µM
NCI-H460 lung
  GI50: 2.76 µM
  TGI: 7.64 µM
KM12 colon
  GI50: 2.31 µM
  TGI: > 100 µM
SF-295 CNS
  GI50: 1.72 µM
  TGI: 5.25 µM
MCF7 breast
  GI50: 1.93 µM
  TGI: > 100 µM
BT-549 breast
  GI50: 4.39 µM
  TGI: > 100 µM
IGROV1 ovarian
  GI50: 3.21 µM
  TGI: > 100 µM

## O=C(O)CP(=S)(S)c1ccccc1 (stereo not drawn)
TK-10 renal
  TGI: > 100 µM
SF-268 CNS
  TGI: > 100 µM
SK-OV-3 ovarian
  TGI: > 100 µM
NCI-H460 lung
  TGI: > 100 µM
KM12 colon
  TGI: > 100 µM
SF-295 CNS
  TGI: > 100 µM
UO-31 renal
  TGI: > 100 µM

## Cc1cccc(NC(=O)C(=O)Cc2nc3ccccc3[nH]c2=O)c1C
TK-10 renal
  TGI: > 100 µM
SF-268 CNS
  TGI: > 100 µM
SK-OV-3 ovarian
  TGI: > 100 µM
NCI-H460 lung
  TGI: > 100 µM
KM12 colon
  TGI: > 100 µM
SF-295 CNS
  TGI: > 100 µM
IGROV1 ovarian
  TGI: > 100 µM
UO-31 renal
  TGI: > 100 µM

## CN(C)CC/C(=N\Nc1c(Cl)cccc1Cl)c1ccccc1
TK-10 renal
  TGI: 30.9 µM
SK-OV-3 ovarian
  TGI: 52 µM
NCI-H460 lung
  TGI: 29.9 µM
KM12 colon
  TGI: 34.8 µM
SF-295 CNS
  TGI: 35.9 µM
IGROV1 ovarian
  TGI: 92.4 µM
UO-31 renal
  TGI: 22.5 µM

## CC(=O)[CH-]C(=O)c1ccccc1.CC(=O)[CH-]C(=O)c1ccccc1.O=C([O-])c1ccc([O-])cc1.O=C([O-])c1ccc([O-])cc1.[Ti+4]
SF-268 CNS
  GI50: 25 µM
  TGI: > 100 µM
SK-OV-3 ovarian
  GI50: > 100 µM
  TGI: > 100 µM
NCI-H460 lung
  GI50: 44.2 µM
  TGI: > 100 µM
KM12 colon
  GI50: 25 µM
  TGI: 90.1 µM
SF-295 CNS
  GI50: 41.6 µM
  TGI: > 100 µM
IGROV1 ovarian
  GI50: 84.3 µM
  TGI: > 100 µM
UO-31 renal
  GI50: 23.1 µM
  TGI: 76.4 µM

## COC(=O)c1cccc2cccc(C(=O)Nc3ccc(C)cc3C)c12
TK-10 renal
  TGI: > 100 µM
SF-268 CNS
  TGI: > 100 µM
SK-OV-3 ovarian
  TGI: > 100 µM
NCI-H460 lung
  TGI: > 100 µM
KM12 colon
  TGI: > 100 µM
SF-295 CNS
  TGI: > 100 µM
IGROV1 ovarian
  TGI: > 100 µM
UO-31 renal
  TGI: > 100 µM

## COC(=O)c1cc(Br)c(Br)n1C
TK-10 renal
  TGI: > 100 µM
SF-268 CNS
  TGI: > 100 µM
SK-OV-3 ovarian
  TGI: > 100 µM
KM12 colon
  TGI: > 100 µM
SF-295 CNS
  TGI: > 100 µM
IGROV1 ovarian
  TGI: > 100 µM
UO-31 renal
  TGI: > 100 µM

## CC1=C2C(=O)O[C@@H](c3ccoc3)[C@]2(C)CCC1
TK-10 renal
  TGI: > 100 µM
SF-268 CNS
  TGI: > 100 µM
SK-OV-3 ovarian
  TGI: > 100 µM
NCI-H460 lung
  TGI: > 100 µM
KM12 colon
  TGI: > 100 µM
SF-295 CNS
  TGI: > 100 µM
IGROV1 ovarian
  TGI: > 100 µM
UO-31 renal
  TGI: > 100 µM

## CC12CCCC(O)C1CCC1=CC3(CCC12)SCCS3 (stereo not drawn)
TK-10 renal
  TGI: > 10 µM
SF-268 CNS
  TGI: > 10 µM
SK-OV-3 ovarian
  TGI: > 10 µM
KM12 colon
  TGI: > 10 µM
SF-295 CNS
  TGI: > 10 µM
MCF7 breast
  TGI: > 10 µM
BT-549 breast
  TGI: > 10 µM
IGROV1 ovarian
  TGI: > 10 µM

## COc1ccc2c(c1)CCC1C3(CCCC21C)OCCO3 (stereo not drawn)
TK-10 renal
  TGI: > 100 µM
SF-268 CNS
  TGI: 19.9 µM
SK-OV-3 ovarian
  TGI: 60.9 µM
NCI-H460 lung
  TGI: 46.3 µM
KM12 colon
  TGI: 51.7 µM
SF-295 CNS
  TGI: 40.8 µM
IGROV1 ovarian
  TGI: 79.4 µM
UO-31 renal
  TGI: 31 µM

## Cc1ccc2nc3c(C(=O)NCCN(C)C)cccc3nc2c1
TK-10 renal
  TGI: > 66 µM
SK-OV-3 ovarian
  TGI: > 56.3 µM
KM12 colon
  TGI: 20.2 µM
SF-295 CNS
  TGI: > 27.1 µM
IGROV1 ovarian
  TGI: > 60.1 µM
UO-31 renal
  TGI: > 54.8 µM

## CC[O-].CC[O-].O=C1c2ccccc2C(=O)c2c(O)ccc([O-])c21.O=C1c2ccccc2C(=O)c2c(O)ccc([O-])c21.[Ti+4]
TK-10 renal
  TGI: > 100 µM
SF-268 CNS
  TGI: > 100 µM
SK-OV-3 ovarian
  TGI: > 100 µM
NCI-H460 lung
  TGI: > 100 µM
KM12 colon
  TGI: > 100 µM
SF-295 CNS
  TGI: > 100 µM
IGROV1 ovarian
  TGI: > 100 µM
UO-31 renal
  TGI: > 100 µM

## Cc1cc(C)nc(NS(=O)(=O)c2ccc(Nc3c4ccccc4nc4c(C(=O)Nc5ccc(S(=O)(=O)Nc6cc(C)on6)cc5)cccc34)cc2)n1
TK-10 renal
  TGI: 96 µM
SF-268 CNS
  TGI: 58 µM
SK-OV-3 ovarian
  TGI: 61.7 µM
NCI-H460 lung
  TGI: 61 µM
KM12 colon
  TGI: 35.7 µM
SF-295 CNS
  TGI: 63.1 µM
IGROV1 ovarian
  TGI: 77.1 µM
UO-31 renal
  TGI: 63.2 µM

## O=C(O)CN(c1ccccc1)S(=O)(=O)c1ccccc1[N+](=O)[O-]
TK-10 renal
  TGI: > 100 µM
SF-268 CNS
  TGI: > 100 µM
SK-OV-3 ovarian
  TGI: > 100 µM
NCI-H460 lung
  TGI: > 100 µM
KM12 colon
  TGI: > 100 µM
SF-295 CNS
  TGI: > 100 µM
IGROV1 ovarian
  TGI: > 100 µM
UO-31 renal
  TGI: > 100 µM

## N#Cc1nc(C2OC(COC(=O)c3ccccc3)C(OC(=O)c3ccccc3)C2OC(=O)c2ccccc2)oc1N (stereo not drawn)
TK-10 renal
  TGI: > 100 µM
SF-268 CNS
  TGI: > 100 µM
SK-OV-3 ovarian
  TGI: > 100 µM
NCI-H460 lung
  TGI: > 100 µM
KM12 colon
  TGI: > 100 µM
SF-295 CNS
  TGI: > 100 µM
IGROV1 ovarian
  TGI: > 100 µM
UO-31 renal
  TGI: 66.8 µM

## NC(N)=NCCCn1c2c(c3ccccc3c1=O)C(=O)c1ccccc1-2
TK-10 renal
  GI50: 29.5 µM
  TGI: 98.3 µM
SF-268 CNS
  GI50: 1.53 µM
  TGI: 9.45 µM
SK-OV-3 ovarian
  GI50: 34.2 µM
  TGI: > 100 µM
NCI-H460 lung
  GI50: 15.3 µM
  TGI: > 100 µM
KM12 colon
  GI50: 21.9 µM
  TGI: 59.1 µM
SF-295 CNS
  GI50: 1.66 µM
  TGI: 7.72 µM
MCF7 breast
  GI50: 7.27 µM
  TGI: 25.1 µM
BT-549 breast
  GI50: 2.28 µM
  TGI: 5.51 µM
IGROV1 ovarian
  GI50: 10.6 µM
  TGI: 22.6 µM

## Cc1ccccc1N(CCC#N)C1=NN(C(=O)CC(=O)Nc2ccccc2)C(c2ccccc2)C1 (stereo not drawn)
SF-268 CNS
  TGI: > 100 µM
SK-OV-3 ovarian
  TGI: > 100 µM
NCI-H460 lung
  TGI: > 100 µM
KM12 colon
  TGI: > 100 µM
SF-295 CNS
  TGI: > 100 µM
IGROV1 ovarian
  TGI: > 100 µM
UO-31 renal
  TGI: > 100 µM

## CC(C)(C)OC(=O)Cc1ccc2c(ccn2Cc2ccccc2)c1
TK-10 renal
  TGI: > 100 µM
SF-268 CNS
  TGI: > 100 µM
SK-OV-3 ovarian
  TGI: > 100 µM
NCI-H460 lung
  TGI: > 100 µM
KM12 colon
  TGI: > 100 µM
SF-295 CNS
  TGI: > 100 µM
IGROV1 ovarian
  TGI: > 100 µM
UO-31 renal
  TGI: > 100 µM

## Cc1cc(SCC(=O)c2ccccc2)nc2ccccc12
TK-10 renal
  TGI: > 100 µM
SF-268 CNS
  TGI: > 100 µM
NCI-H460 lung
  TGI: > 100 µM
KM12 colon
  TGI: > 100 µM
SF-295 CNS
  TGI: > 100 µM
MCF7 breast
  TGI: > 100 µM
BT-549 breast
  TGI: > 100 µM
IGROV1 ovarian
  TGI: > 100 µM
UO-31 renal
  TGI: > 100 µM

## C=CCCCCCCCCC(=O)NS(=O)(=O)c1ccccc1
TK-10 renal
  TGI: > 100 µM
SF-268 CNS
  TGI: > 100 µM
SK-OV-3 ovarian
  TGI: > 100 µM
NCI-H460 lung
  TGI: > 100 µM
KM12 colon
  TGI: > 100 µM
SF-295 CNS
  TGI: > 100 µM
IGROV1 ovarian
  TGI: > 100 µM
UO-31 renal
  TGI: > 100 µM

## CC(C)=CCC/C(=C/CC/C(C)=C/CCc1ccoc1)C(=O)O
SF-268 CNS
  TGI: > 100 µM
SK-OV-3 ovarian
  TGI: > 100 µM
NCI-H460 lung
  TGI: > 100 µM
KM12 colon
  TGI: > 100 µM
SF-295 CNS
  TGI: > 100 µM
UO-31 renal
  TGI: > 100 µM
